Experimental data taken from US7524930B2, “Tumor antigen” (Green Peptide Co., Ltd, priority 2003, dated 2009).
Peptide text beside a SMILES is read from it.

What was measured:
[1] = system: peripheral blood mononuclear cells derived from a cancer patient; format: cell-based, human
Description: Moreover, CTL-activating ability of these 19 peptides was directly examined in a ^51Cr-releasing test using toxicity to the target cells as an indicator. Specifically, the above-described PBMC, in which CTL was induced, was further recultured to proliferate in the presence of autologous APC, IL-2, and a corresponding peptide. At about day 21 to 28 after the start of reculturing, PBMC was collected and cytotoxicity thereof was tested again by measuring IFN-γ and by a 6-h ^51Cr-releasing test. PBMC of the cancer patient, which was stimulated by these peptides, lysed the HLA-A2^+ tumor cells. However, the autologous EBV-B cells and the T cells stimulated by PHA, both of which were derived from normal cells and were expressing HLA-A2, and the HLA-A2^− tumor cell RERF-LC-MS, were not lysed.

[2] = system: Panc-1 cells and YPK-3 cells; experiment: 51Cr-releasing test of CTLs induced by KM-PA-2 peptides (Example 8); format: cell-based, human; conditions: result in words; for Lysis of HLA-A2- tumor cell and normal cells by peptide-induced CTLs: PaCa-2, EBV-B cell line OKAB2, PHA-stimulated T cells; for Lysis of HLA-A2+ tumor cells by peptide-induced CTLs: Panc-1 cells and YPK-3 cells
Source text: The ability of the synthesized peptide to induce CTL from the peripheral blood mononuclear cells of the colon cancer patient, from whom OK-CTLp was obtained, was examined in the same way as that in Example 6. As a result, as shown in FIGS. 20A-20B, PBMC that was stimulated in vitro using any one of peptides P33 to P41 (SEQ ID NO:33 to SEQ ID NO:41) derived from KM-PA-2 and peptides P42 to P44 (SEQ ID NO:42 to SEQ ID NO:44) derived from KM-PA-4, produced IFN-γ through recognition of the T2 cells (left-hand figure of FIGS. 20A-20B,) which were pulsed with the peptide corresponding to that used for stimulation of the PBMC, and the Panc-1 cell (right-hand of FIGS. 20A-20B,) which is the HLA-A2^+ tumor cell. However, the PBMC reacted […] to the HLA-A2^− tumor cell. […] In addition, cytotoxicity of these CTLs induced by the peptides was directly confirmed by the ^51Cr-releasing test in the same way as that in Example 6. FIGS. 21A-21C show a representative example of the result. As shown in FIGS. 21A-21C, CTLs induced from PBMC of the cancer patient by P35, P39, or P40 lysed Panc-1 cells and YPK-3 cells, both of which are HLA-A2^+ tumor cells. However, the HLA-A2^− tumor cell PaCa-2, the EBV-B cell line OKAB2, and the T cells stimulated by PHA, was not lysed.

[3] = system: human peripheral blood mononuclear cells (PBMC); experiment: CTL induction by peptide from PBMC of HLA-A2-positive cancer patients and healthy individuals, IFN-γ against peptide-pulsed T2 cells (Example 6); format: cell-based; conditions: for INF-γ production: peptide-pulsed T2 cells
Description: For six peptides (P21, P22, P24, P26, P30, and P32) with a purity of 95% or higher among peptides from P20 to P32 derived from gene 7 and CPSF among the tumor antigen peptide obtained in Example 4, the activity to induce CTL in vitro from human peripheral blood mononuclear cells (PBMC) was examined using IFN-γ production as an indicator. PBMC used was prepared from each peripheral blood of sixteen HLA-A2-positive cancer patients (4 patients with pancreatic cancer, seven patients with stomach cancer, and 5 patients with colon cancer) and six healthy individuals. Specifically, 1×10^5 PBMC was added to each well of 96-well U-bottom type microculture plate (Nunc Corp.) and incubated together with 10 μM of each of the above-described peptides in 200 μl culture medium. The culture medium consisted of 45% RPMI-1640, 45% AIM-V (Invitrogen Corp.,) 10% fetal calf serum (FCS), 100U/ml of human interleukin-2, and […] MEM nonessential amino acid solution (Invitrogen Corp.). At day 4 and day 7 after the start of culturing, half of the culture medium was removed and replaced with the above-described composition containing each corresponding peptide. At day 10 after the start of culturing, the cells were collected and washed, followed by reacting with T2 cells, which were pulsed with each corresponding peptide, to measure the amount of IFN-γ produced.

[4] = system: OK-CTLp or OK-CTL clone; experiment: Recognition of peptide-pulsed T2 cells by OK-CTLp or OK-CTL clone (IFN-γ ELISA); format: cell-based, human
[5] = system: Panc-1 pancreatic adenocarcinoma cell (HLA-A2); experiment: 6-h 51Cr-releasing test of peptide-stimulated PBMC against Panc-1 (Example 6); format: cell-based, human
Description: Meanwhile, the above-described cells cultured for 10 days after stimulation by the peptide were further cultured for 10 days. The cytotoxicity of the obtained cells against the Panc-1 pancreatic adenocarcinoma cell (HLA-A2) was measured by the standard 6-h ^51Cr-releasing test in an E/T ratio of 10:1. The results obtained are presented as % specific lysis (table 7). Together with this step, cytotoxicity against SSTW-9 tumor cell as the HLA-A2^− tumor cell was measured to use as a background that was subtracted from the above-described result.

In the case of `CC[C@H](C)[C@H](NC(=O)[C@@H](NC(=O)[C@@H](N)CCCNC(=N)N)[C@@H](C)CC)C(=O)N[C@@H](Cc1ccc(O)cc1)C(=O)N[C@@H](CC(=O)O)C(=O)N[C@@H](CCCNC(=N)N)C(=O)N[C@@H](CCCCN)C(=O)N[C@@H](Cc1ccccc1)C(=O)N[C@@H](CC(C)C)C(=O)O` [Peptide P14] (H-RIIYDRKFL-OH), the “Cytotoxicity of peptide-stimulated PBMC to the autologous EBV-B cells” value (shortened to “Cytotoxicity … to the autologous EBV-B cells”) [1] is reported as “showed cytotoxicity”.
With `CC[C@H](C)[C@H](N)C(=O)N[C@H](C(=O)N[C@@H](Cc1ccc(O)cc1)C(=O)N[C@@H](CC(=O)O)C(=O)N[C@@H](CCCNC(=N)N)C(=O)N[C@@H](CCCCN)C(=O)N[C@@H](Cc1ccccc1)C(=O)N[C@@H](CC(C)C)C(=O)N[C@@H](CCSC)C(=O)O)[C@@H](C)CC` [Peptide P15] (H-IIYDRKFLM-OH) the “Cytotoxicity … to the autologous EBV-B cells” value [1] was “showed cytotoxicity”.
For `CC(C)C[C@H](NC(=O)CN)C(=O)N[C@@H](CC(C)C)C(=O)N[C@@H](Cc1ccccc1)C(=O)N[C@@H](CC(C)C)C(=O)N[C@@H](Cc1c[nH]cn1)C(=O)N[C@H](C(=O)N[C@@H](CCCNC(=N)N)C(=O)N[C@H](C(=O)O)[C@@H](C)O)[C@@H](C)O` [Peptide P17] (H-GLLFLHTRT-OH), the “Cytotoxicity … to the autologous EBV-B cells” value [1] was “showed cytotoxicity”.
`CC(C)C[C@H](NC(=O)[C@H](CCC(N)=O)NC(=O)[C@@H](N)CCC(N)=O)C(=O)N[C@@H](CS)C(=O)N[C@H](C(=O)N[C@@H](Cc1ccc(O)cc1)C(=O)N[C@@H](Cc1c[nH]c2ccccc12)C(=O)N[C@H](C(=O)N[C@H](C(=O)O)C(C)C)[C@@H](C)O)C(C)C` [Peptide P19] (H-QQLCVYWTV-OH) was tested, and the “Cytotoxicity … to the autologous EBV-B cells” value [1] was “showed high cytotoxicity”.
In the case of “DLLQNPLLV (Designed peptide having an ability to activate HLA-A2 restricted Cytotoxic T lymphocytes) [Peptide P39, KM-PA-2 585-593]”, the “Lysis of HLA-A2- tumor cell and normal cells by peptide-induced CTLs” value [2] is reported as “not lysed” and the “Lysis of HLA-A2+ tumor cells by peptide-induced CTLs” value (from here on “Lysis of HLA-A2+ tumor cells”) [2] is reported as “lysed”.
For “LLQNPLLVPV (Designed peptide having an ability to activate HLA-A2 restricted Cytotoxic T lymphocytes) [Peptide P40, KM-PA-2 586-595]”, the “Lysis of HLA-A2- tumor cell and normal cells by peptide-induced CTLs” value [2] was “not lysed” and the “Lysis of HLA-A2+ tumor cells” value [2] was “lysed”.
For QLGQGNLKV [Peptide P23], the INF-γ production ([3]; PBMC of colon cancer patient 12) was 71 pg/mL, the INF-γ production ([3]; PBMC of colon cancer patient 13) was 138 pg/mL and the INF-γ production ([3]; PBMC of colon cancer patient 14) was 48 pg/mL. It also gave an INF-γ production ([3]; PBMC of colon cancer patient 15) of 14 pg/mL, an INF-γ production ([3]; PBMC of colon cancer patient 16) of 0 pg/mL and an INF-γ production ([3]; PBMC of healthy individual HD1) of 0 pg/mL. The INF-γ production ([3]; PBMC of healthy individual HD2) was 13 pg/mL, the INF-γ production ([3]; PBMC of healthy individual HD3) was 8 pg/mL and the INF-γ production ([3]; PBMC of healthy individual HD4) was 6 pg/mL. It also gave an INF-γ production ([3]; PBMC of healthy individual HD5) of 83 pg/mL, an INF-γ production ([3]; PBMC of healthy individual HD6) of 45 pg/mL and an INF-γ production ([3]; PBMC of pancreatic cancer patient 1) of 0 pg/mL. The INF-γ production ([3]; PBMC of pancreatic cancer patient 2) was 41 pg/mL, the INF-γ production ([3]; PBMC of pancreatic cancer patient 3) was 0 pg/mL and the INF-γ production ([3]; PBMC of pancreatic cancer patient 4) was 72 pg/mL. For the same compound, the INF-γ production ([3]; PBMC of stomach cancer patient 5) was 0 pg/mL, the INF-γ production ([3]; PBMC of stomach cancer patient 6) was 0 pg/mL and the INF-γ production ([3]; PBMC of stomach cancer patient 7) was 46 pg/mL. For the same compound, the INF-γ production ([3]; PBMC of stomach cancer patient 8) was 0 pg/mL, the INF-γ production ([3]; PBMC of stomach cancer patient 9) was 0 pg/mL and the INF-γ production ([3]; PBMC of stomach cancer patient 10) was 0 pg/mL. For the same compound, the INF-γ production ([3]; PBMC of stomach cancer patient 11) was 0 pg/mL, the “Patients in whom peptide-specific HLA-A2-restricted CTL were induced from PBMC” value ([3]; sixteen HLA-A2-positive cancer patients) was 25% and the IFN-γ production ([4]; concentration of peptide 0.1 μM) was 6360 pg/mL. The IFN-γ production ([4]; concentration of peptide 1 μM) was 0 pg/mL, the IFN-γ production ([4]; concentration of peptide 10 μM) was 345 pg/mL and the IFN-γ production ([4]; concentration of peptide 50 μM) was 160 pg/mL. For the same compound, the “% specific lysis” value ([5]; PBMC of colon cancer patient 12, Panc-1, E/T 10:1) was 18%, the “% specific lysis” value ([5]; PBMC of colon cancer patient 13, Panc-1, E/T 10:1) was 10% and the “% specific lysis” value ([5]; PBMC of pancreatic cancer patient 2, Panc-1, E/T 10:1, SSTW-9 background subtracted) was 53%. For the same compound, the “% specific lysis” value ([5]; PBMC of pancreatic cancer patient 4, Panc-1, E/T 10:1) was 10% and the “% specific lysis” value ([5]; PBMC of stomach cancer patient 7, Panc-1, E/T 10:1) was 10%.
“WAQEDPNAV (Designed peptide having an ability to activate HLA-A2 restricted Cytotoxic T lymphocytes) [Peptide P35, KM-PA-2 172-180]” was tested, and the “Lysis of HLA-A2- tumor cell and normal cells by peptide-induced CTLs” value [2] was “not lysed” and the “Lysis of HLA-A2+ tumor cells” value [2] was “lysed”.
